From paper PMC8038350, “Nordihydroguaiaretic Acid as a Novel Substrate and Inhibitor of Catechol O-Methyltransferase Modulates 4-Hydroxyestradiol-Induced Cyto- and Genotoxicity in MCF-7 Cells” (Molecules, 2021)

Assays:
[1] = target: T1, catechol O-methyl transferase (COMT) (Homo sapiens, UniProt P21964); assay: inhibition of recombinant COMT O-methylation of 4-OHE2 by HPLC-DAD (IC50 […]); also a substrate (Km […]); format: biochemical
T1 construct: recombinant human soluble COMT, hexahistidine-tagged
T1 sequence (P21964 51-271 limits assumed): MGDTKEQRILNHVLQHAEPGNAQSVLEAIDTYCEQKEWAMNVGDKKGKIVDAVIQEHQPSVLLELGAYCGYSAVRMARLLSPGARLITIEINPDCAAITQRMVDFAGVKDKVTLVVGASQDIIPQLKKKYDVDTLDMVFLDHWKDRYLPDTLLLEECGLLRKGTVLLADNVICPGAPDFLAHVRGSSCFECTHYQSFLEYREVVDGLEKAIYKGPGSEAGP

[2] = target: T2, catechol O-methyl transferase (COMT) (Homo sapiens, UniProt P21964); assay: 4-MeOE2 formation in MCF-7 cells/lysate; […] decrease at […]; format: cell-based; settings: MCF7
T2 construct: endogenous COMT in MCF-7 whole cell lysate
T2 sequence (P21964 1-271): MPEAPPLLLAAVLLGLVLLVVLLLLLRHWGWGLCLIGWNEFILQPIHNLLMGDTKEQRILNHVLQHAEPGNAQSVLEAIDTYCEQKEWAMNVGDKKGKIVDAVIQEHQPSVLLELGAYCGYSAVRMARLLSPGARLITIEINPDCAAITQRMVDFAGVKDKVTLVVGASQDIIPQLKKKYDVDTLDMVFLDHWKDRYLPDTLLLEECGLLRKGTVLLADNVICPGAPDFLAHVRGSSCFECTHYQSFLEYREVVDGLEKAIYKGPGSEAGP

Ki [1] [µM]	inhibition at 10 µM [2] [%]	SMILES
15.7	–	C[C@H](Cc1ccc(O)c(O)c1)[C@H](C)Cc1ccc(O)c(O)c1 [compound 1, 4-[4-(3,4-dihydroxyphenyl)-2,3-dimethylbutyl] benzene-1,2-diol]
–	88	O=C(c1cc(O)c(O)c([N+](=O)[O-])c1)c1ccccc1F [Ro 41-0960]
